Series [1] has as its system pancreatic, breast, and colon cancers. Conditions: cited from earlier work.
Series [2] is described as follows: Quantitative 19F-NMR of compound persistence in tumor, blood and liver. Format: in vivo, mice. The procedure:
To validate ^19F-NMR as a viable detection approach, the persistence of pCF3-MMe in tumors was analyzed. KPC1242 engrafted mice were administered 1 mg/mouse pCF3-MMe starting 12 days after implantation. […] We next designed a quantitative NMR approach to measure the in vivo persistence of pCF3-MMe. First, serial dilutions of known concentrations of pCF3-MMe were prepared, and the intensity of the NMR peaks at a set scan number (n=64) was used to create a standard curve. Next, a one-phase decay least-squares fit equation was generated to calculate the amount of pCF3-MMe at each time point using the standardized scan number.
Cells (1×10^7 cells/10 cm dish) were allowed to adhere overnight and then treated with varying concentrations of mitochondria-targeted compounds. Compounds were extracted using multiple methods and optimized for detection and quantification: A) Cells or tumors were placed in a dry ice ethanol bath followed by 80% v/v MeOH in water. Cells were placed on a dry ice ethanol bath on an orbital shaker for 20 minutes, and then cells were collected and centrifuged at 10,000×g; B) Post-treatment cells were lifted with TrypLE (Gibco, Cat #11558856) and centrifuged, then compound was extracted from the cells or tumors with 9:1 CHCl3:H2O, CH2Cl2, or 1:1 MeCN:H2O. Following extraction, solvents were evaporated using a Biotage V-10 Touch (Uppsala, Sweden), and before NMR acquisition, samples were resuspended in an equal volume of DMSO-d6.
^19F 1D-NMR spectra were collected on a Bruker Avance-III 500 MHz NMR spectrometer equipped with a 1H&^19F/13C/15N-TCI cryoprobe. […] To evaluate pCF3-MMe concentrations in biological samples, a standard curve was generated using pCF3-MMe concentrations of 0.25, 0.50, 0.75, 1.0, 1.25, and 1.5 mg/mL, and the resulting peak intensities were analyzed by linear regression. […]
All animal studies were approved by the Institutional Animal Care and Use Committees at the Medical College of Wisconsin. […] Tumors were excised, and volume (length×width×depth=mm^3) was measured post-mortem using calipers. […]

The subject of series [3] is KPC1242 murine pancreatic cancer. As to the kind of experiment: Tumor growth in KPC1242 engrafted mice. Format: in vivo. Conditions: 1 mg pCF3-MMe, 5 days on and 2 days off, from 17 days after engraftment. The procedure:
FIGS. 6A-6I show pCF3-MMe inhibits tumor growth with enhanced biosafety relative to MMe. C57BL/6J mice were treated with 1 mg MMe, 1 mg pCF3-MMe, 1 mg MMe, 250 μg MMe, 100 μg MMe, 50 μg MMe, or 25 μg MMe for 6 hours (FIG. 6A) or 5 days (FIG. 6D). Kaplan-Meier survival curve of mice treated for 6 hours (FIG. 6B) or 5 days (FIG. 5E), n=3-5. Numbers of mice surviving over time after a single injection (FIG. 6C) or 5 repeated doses (FIG. 6F). Significance was determined using a Mantel-Cox test (*, p<0.05; **, p<0.01). KPC1242 murine pancreatic cancer engrafted mice were treated with 1 mg pCF3-MMe or vehicle 5 days on and 2 days off (FIG. 6G). […] Tumor volume was measured ex vivo from vehicle and pCF3-MMe-treated mice (FIG. 6I). […] Significant differences were determined by Student's t-test (*, p<0.05).
Given the strong safety shown from a single injection, further studies were conducted to determine if mice tolerated repeated injection using our published treatment schedule by injecting non-tumor-bearing mice daily for 5 consecutive days with doses ranging from as little as 25 μg/mouse to as much as 1 mg/mouse 20 (FIG. 6D). […] Taken together, trifluoromethylation of TPP^+ improves the reproducible detection, quantitative measurement, and safety profile of TPP^+-conjugated compounds while retaining potent anti-tumor effects in vivo. […]

Entries after “also recorded” stand apart in the source; their conditions may differ.

`N=C(N)NC(=N)NCCCCCCCCCC[P+](c1ccccc1)(c1ccccc1)c1ccccc1.[Br-]` [MMe, 10-[(carbamimidamidomethanimidoyl)amino]decyl-triphenylphosphonium bromide, reference compound]: the “efficacy compared to metformin” value in series [1] was 100-1000 fold.

Consider `N=C(N)NC(=N)NCCCCCCCCCC[P+](c1ccc(C(F)(F)F)cc1)(c1ccc(C(F)(F)F)cc1)c1ccc(C(F)(F)F)cc1.[Br-]` [pCF3-MMe, (10-(3-carbamimidoylguanidino)decyl)tris(4-(trifluoromethyl)phenyl)phosphonium bromide], for which the “detection in the blood and liver” value is given as “undetectable; also recorded: not detected” in series [2] (2 hours after injection, 1 mg) and “barely detectable above the signal-to-noise ratio” in series [2] (6 hours after injection). In addition, in series [2] (24 hours after injection, 1 mg/mouse), the “levels within the tumors” value was “measurable levels”. Moreover, the “tumor size and volume” value in series [3] is “significantly decreased tumor size and volume”.

Values taken from patent publication US20250042925A1, “Improved Compositions and Methods for Targeting Mitochondria in Cancer Cells” (The Medical College of Wisconsin, Inc., priority 2021, published 2025).
